Values quoted from earlier work in patent publication US12653843B2, “Compositions comprising extracellular matrix of primitive animal species and related methods” (University of Pittsburgh—Of the Commonwealth System of …, priority 2016, dated 2026).

Biological target: ErbB2 (Homo sapiens, UniProt P04626)
Sequence (P04626 23-1255, species assumed): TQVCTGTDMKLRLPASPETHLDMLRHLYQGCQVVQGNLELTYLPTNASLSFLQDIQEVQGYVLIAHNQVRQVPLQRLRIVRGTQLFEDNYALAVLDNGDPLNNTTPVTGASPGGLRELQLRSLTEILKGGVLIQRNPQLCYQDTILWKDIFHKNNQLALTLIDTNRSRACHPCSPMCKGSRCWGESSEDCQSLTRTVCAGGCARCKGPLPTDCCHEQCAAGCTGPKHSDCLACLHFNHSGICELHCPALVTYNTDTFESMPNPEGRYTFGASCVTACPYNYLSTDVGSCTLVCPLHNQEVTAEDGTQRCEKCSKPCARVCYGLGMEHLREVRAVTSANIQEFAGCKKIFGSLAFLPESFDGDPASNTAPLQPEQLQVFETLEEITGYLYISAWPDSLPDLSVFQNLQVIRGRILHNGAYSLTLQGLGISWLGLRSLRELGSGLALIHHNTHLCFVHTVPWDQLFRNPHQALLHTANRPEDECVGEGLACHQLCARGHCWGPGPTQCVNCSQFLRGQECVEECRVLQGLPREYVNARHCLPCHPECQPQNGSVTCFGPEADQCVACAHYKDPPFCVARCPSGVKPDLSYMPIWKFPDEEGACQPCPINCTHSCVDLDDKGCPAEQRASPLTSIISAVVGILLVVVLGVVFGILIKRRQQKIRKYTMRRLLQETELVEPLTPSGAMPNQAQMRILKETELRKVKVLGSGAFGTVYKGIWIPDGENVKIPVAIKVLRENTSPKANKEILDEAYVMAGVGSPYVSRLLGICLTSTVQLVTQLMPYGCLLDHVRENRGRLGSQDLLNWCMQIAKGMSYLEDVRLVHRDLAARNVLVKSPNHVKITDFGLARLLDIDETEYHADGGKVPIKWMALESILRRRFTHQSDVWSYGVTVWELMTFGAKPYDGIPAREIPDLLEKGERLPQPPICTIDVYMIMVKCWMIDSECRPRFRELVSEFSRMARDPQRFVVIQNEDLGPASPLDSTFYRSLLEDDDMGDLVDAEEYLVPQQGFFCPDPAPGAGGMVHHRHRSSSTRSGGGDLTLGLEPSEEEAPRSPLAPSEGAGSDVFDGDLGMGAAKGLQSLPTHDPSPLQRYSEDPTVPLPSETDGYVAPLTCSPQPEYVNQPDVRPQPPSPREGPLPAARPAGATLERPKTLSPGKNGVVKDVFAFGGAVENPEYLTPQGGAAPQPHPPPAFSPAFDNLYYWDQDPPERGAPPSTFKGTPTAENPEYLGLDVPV

COc1cc(/C=C(\C#N)C(N)=O)cc(CSc2nc3ccccc3s2)c1O [AG825]
selectivity: inhibition of ErbB2 autophosphorylation versus ErbB1 (EGFR): ~60 fold
